# Assay results: the supplement of paper PMC10307832
# Experiments:
# Test in all cases: relative viability (nuclei count vs DMSO), 5 days (fraction); higher = more cells survive
# Erlotinib + Trametinib = compound: C#Cc1cccc(Nc2ncnc3cc(OCCOC)c(OCCOC)cc23)c1 [Erlotinib] + CC(=O)Nc1cccc(-n2c(=O)n(C3CC3)c(=O)c3c(Nc4ccc(I)cc4F)n(C)c(=O)c(C)c32)c1 [Trametinib] (partner 0.02 µM)
# How it was run: (§1)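 Relative viability was taken as the ratio of nuclei in treated wells to nuclei in vehicle wells. Lung cancer cell lines in 1536-well plates received compounds by pin tool one day after seeding, either one drug alone or a fixed anchor-drug dose plus five library-drug doses (not always all listed) in √10 steps. Nuclei were counted on 4× images after 5 days of treatment, and values are medians of duplicate plates.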
# Erlotinib + Lapatinib = compound: C#Cc1cccc(Nc2ncnc3cc(OCCOC)c(OCCOC)cc23)c1 [Erlotinib] + CS(=O)(=O)CCNCc1ccc(-c2ccc3ncnc(Nc4ccc(OCc5cccc(F)c5)c(Cl)c4)c3c2)o1 [Lapatinib] (partner 2 µM)
# How it was run: as §1
# Erlotinib + Tozasertib = compound: C#Cc1cccc(Nc2ncnc3cc(OCCOC)c(OCCOC)cc23)c1 [Erlotinib] + Cc1cc(Nc2cc(N3CCN(C)CC3)nc(Sc3ccc(NC(=O)C4CC4)cc3)n2)n[nH]1 [Tozasertib] (partner 0.1 µM)
# How it was run: as §1
# Erlotinib + Vorinostat = compound: C#Cc1cccc(Nc2ncnc3cc(OCCOC)c(OCCOC)cc23)c1 [Erlotinib] + O=C(CCCCCCC(=O)Nc1ccccc1)NO [Vorinostat] (partner 1 µM)
# How it was run: as §1
# AT9283 + Navitoclax = compound: O=C(Nc1c[nH]nc1-c1nc2ccc(CN3CCOCC3)cc2[nH]1)NC1CC1 [AT9283] + CC1(C)CCC(c2ccc(Cl)cc2)=C(CN2CCN(c3ccc(C(=O)NS(=O)(=O)c4ccc(N[C@H](CCN5CCOCC5)CSc5ccccc5)c(S(=O)(=O)C(F)(F)F)c4)cc3)CC2)C1 [Navitoclax] (partner 0.5 µM)
# How it was run: as §1
Cell Line,relative viability (Erlotinib + Trametinib; first compound 0.02 µM),relative viability (Erlotinib + Trametinib; first compound 0.2 µM),relative viability (Erlotinib + Trametinib; first compound 0.6325 µM),relative viability (Erlotinib + Trametinib; first compound 2 µM),relative viability (Erlotinib + Lapatinib; first compound 0.02 µM),relative viability (Erlotinib + Lapatinib; first compound 0.2 µM),relative viability (Erlotinib + Lapatinib; first compound 0.6325 µM),relative viability (Erlotinib + Lapatinib; first compound 2 µM),relative viability (Erlotinib + Tozasertib; first compound 0.02 µM),relative viability (Erlotinib + Tozasertib; first compound 0.2 µM),relative viability (Erlotinib + Tozasertib; first compound 0.6325 µM),relative viability (Erlotinib + Tozasertib; first compound 2 µM),relative viability (Erlotinib + Vorinostat; first compound 0.02 µM),relative viability (Erlotinib + Vorinostat; first compound 0.2 µM),relative viability (Erlotinib + Vorinostat; first compound 0.6325 µM),relative viability (Erlotinib + Vorinostat; first compound 2 µM),relative viability (AT9283 + Navitoclax; first compound 0.003 µM),relative viability (AT9283 + Navitoclax; first compound 0.03 µM),relative viability (AT9283 + Navitoclax; first compound 0.09487 µM),relative viability (AT9283 + Navitoclax; first compound 0.3 µM)
NCI-H2170,0.884,0.924,0.977,0.773,0.283,0.264,0.293,0.24,0.811,0.73,0.607,0.324,0.787,0.855,0.832,0.501,0.536,0.334,0.201,0.179
NCI-H2228,0.436,0.708,0.49,0.381,0.946,1.31,1.31,0.891,0.237,0.164,0.169,0.142,0.649,0.591,0.458,0.476,0.93,0.774,0.51,0.144
NCI-H2347,0.268,0.482,0.275,0.285,1.04,1.08,0.806,0.882,0.58,0.49,0.52,0.535,0.628,0.717,0.625,0.552,0.93,0.764,0.368,0.267
NCI-H2405,0.543,0.574,0.613,0.55,1.1,1.11,1.14,0.976,0.765,0.722,0.686,0.565,1.27,1.1,1.1,0.917,1.05,0.31,0.127,0.0943
NCI-H3122,0.254,0.271,0.22,0.246,1.08,1.03,0.982,1.01,0.489,0.444,0.44,0.297,0.93,1.14,1.05,0.953,1.01,0.902,0.359,0.298
PC-3 [JPC-3],0.557,0.427,0.337,0.332,0.437,0.383,0.442,0.399,0.825,0.355,0.331,0.274,–,0.441,0.351,0.362,0.821,0.723,0.363,0.331
PC-14,0.185,0.0801,0.107,0.0898,0.276,0.289,0.307,0.279,0.435,0.148,0.159,0.103,0.428,0.0858,0.0926,0.061,1.12,1.01,0.37,0.078
RERF-LC-KJ,0.913,0.774,0.799,0.613,0.857,0.864,0.936,0.734,0.55,0.53,0.44,0.381,0.716,0.605,0.624,0.453,0.834,0.554,0.223,0.217
SK-LU-1,0.495,–,0.566,0.434,0.974,0.933,0.995,0.869,0.336,0.352,0.332,0.267,1.01,0.729,0.899,0.718,1.13,0.415,0.178,0.18
SK-MES-1,0.494,0.345,0.347,0.312,0.511,0.452,0.476,0.434,0.925,0.929,0.648,0.536,1.14,0.619,0.672,0.491,1.24,1.11,0.336,0.147
SW 1573,0.568,0.557,0.526,0.474,1.3,1.05,–,1.17,0.183,0.197,0.156,0.226,0.652,0.605,0.824,0.405,0.868,0.508,0.117,0.117
UMC-11,0.738,0.637,0.916,0.71,1.04,0.952,1.11,0.919,0.208,0.189,0.204,0.198,0.388,0.403,0.392,0.3,0.309,0.113,0.118,0.128
